Common to all, as to assay type: in vivo
Test [1] concerns Echinochloa crus-galli (ECHCG). The test can be described thus: Post-emergence biological efficacy, glasshouse pot test. To be noted: 312 h. Summed up:
(§1)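 Plants were sown in standard soil and grown 8 days in a glasshouse (24/16° C. day/night, 14 hours light, 65% humidity), then sprayed post-emergence at 1000 or 250 g/ha from acetone/water (50:50) with 0.5% Tween 20. Damage was scored visually after 13 days (0 = none, 100 = total).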

Test [2] concerns Setaria faberi (SETFA). The test is described as above. To be noted: 312 h. The method, boiled down: as §1
Test [3] has as its system Ipomea hederaceae (IPOHE). The test is described as above. As to conditions: Ipomoea hederacea, 312 h. The method, boiled down:
as §1

For test [4], the system named is Amaranthus retoflexus (AMARE). The test is described as above. As to conditions: Amaranthus retroflexus, 312 h. Summed up:
as §1

The subject of test [5] is Solanum nigrum (SOLNI). Described as above. As to conditions: 312 h. The method, boiled down:
as §1

Test [6] deals with Alopecurus myosuroides (ALOMY). The description is as above. As to conditions: 312 h. Summed up: as §1
Test [7] concerns Echinochloa crus-galli (ECHCG). The test can be described thus: Pre-emergence biological efficacy, glasshouse pot test. As to conditions: 312 h. The method, boiled down: (§2)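 Seeds sown in standard soil in pots, held one day in glasshouse (24/16 °C day/night, 14 h light, 65% humidity), then sprayed with aqueous solution from acetone/water (50:50) formulation with 0.5% Tween 20 at 1000 or 250 g/ha. Damage scored after 13 days (0 = none, 100 = total).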

Test [8] concerns Setaria faberi (SETFA). The description is as above. As to conditions: 312 h. The method, boiled down: as §2
The subject of test [9] is Ipomea hederaceae (IPOHE). Described as above. As to conditions: Ipomoea hederacea, 312 h. Summed up: as §2
In test [10] the test system is Amaranthus retoflexus (AMARE). The test is described as above. To be noted: Amaranthus retroflexus, 312 h. Summed up: as §2
Test [11] relates to Solanum nigrum (SOLNI). Described as above. To be noted: 312 h. Summed up: as §2
For test [12], the system named is Alopecurus myosuroides (ALOMY). The test is described as above. As to conditions: 312 h. Summed up: as §2
Where [13] appears, read: Rate 1,000 g/ha, post-emergence spray, evaluated after 13 days (100=total damage to plant; 0=no damage to plant), read-out: Percentage damage caused to weed species, post-emergence, ECHCG.
Where [14] appears, read: Rate 1,000 g/ha, post-emergence spray, evaluated after 13 days (100=total damage to plant; 0=no damage to plant), read-out: Percentage damage caused to weed species, post-emergence, SETFA.
The mark [15] stands for this setting: Rate 1,000 g/ha, post-emergence spray, evaluated after 13 days (100=total damage to plant; 0=no damage to plant), read-out: Percentage damage caused to weed species, post-emergence, IPOHE.
[16] abbreviates: Rate 1,000 g/ha, post-emergence spray, evaluated after 13 days (100=total damage to plant; 0=no damage to plant), read-out: Percentage damage caused to weed species, post-emergence, AMARE.
Setting [17] is: Rate 1,000 g/ha, post-emergence spray, evaluated after 13 days (100=total damage to plant; 0=no damage to plant), read-out: Percentage damage caused to weed species, post-emergence, SOLNI.
The mark [18] stands for this setting: Rate 1,000 g/ha, post-emergence spray, evaluated after 13 days (100=total damage to plant; 0=no damage to plant), read-out: Percentage damage caused to weed species, post-emergence, ALOMY.
The mark [19] stands for this setting: pre-emergence, rate 1,000 g/ha, evaluated after 13 days (100=total damage to plant; 0=no damage), read-out: Percentage damage caused to weed species, ECHCG.
Setting [20] is: pre-emergence, rate 1,000 g/ha, evaluated after 13 days (100=total damage to plant; 0=no damage), read-out: Percentage damage caused to weed species, SETFA.
Where [21] appears, read: pre-emergence, rate 1,000 g/ha, evaluated after 13 days (100=total damage to plant; 0=no damage), read-out: Percentage damage caused to weed species, IPOHE.
[22] abbreviates: pre-emergence, rate 1,000 g/ha, evaluated after 13 days (100=total damage to plant; 0=no damage), read-out: Percentage damage caused to weed species, AMARE.
Where [23] appears, read: pre-emergence, rate 1,000 g/ha, evaluated after 13 days (100=total damage to plant; 0=no damage), read-out: Percentage damage caused to weed species, SOLNI.
Setting [24] is: pre-emergence, rate 1,000 g/ha, evaluated after 13 days (100=total damage to plant; 0=no damage), read-out: Percentage damage caused to weed species, ALOMY.
[25] abbreviates: post-emergence, 1,000 g/ha, evaluated after 13 days (100=total damage; 0=no damage), read-out: Percentage damage caused to weed species, ECHCG.
Setting [26] is: post-emergence, 1,000 g/ha, evaluated after 13 days (100=total damage; 0=no damage), read-out: Percentage damage caused to weed species, SETFA.
The mark [27] stands for this setting: post-emergence, 1,000 g/ha, evaluated after 13 days (100=total damage; 0=no damage), read-out: Percentage damage caused to weed species, IPOHE.
[28] abbreviates: post-emergence, 1,000 g/ha, evaluated after 13 days (100=total damage; 0=no damage), read-out: Percentage damage caused to weed species, AMARE.
Setting [29] is: post-emergence, 1,000 g/ha, evaluated after 13 days (100=total damage; 0=no damage), read-out: Percentage damage caused to weed species, SOLNI.
[30] abbreviates: post-emergence, 1,000 g/ha, evaluated after 13 days (100=total damage; 0=no damage), read-out: Percentage damage caused to weed species, ALOMY.
The mark [31] stands for this setting: pre-emergence, 1,000 g/ha, evaluated after 13 days (100=total damage; 0=no damage), read-out: Percentage damage ECHCG.
[32] abbreviates: pre-emergence, 1,000 g/ha, evaluated after 13 days (100=total damage; 0=no damage), read-out: Percentage damage SETFA.
Setting [33] is: pre-emergence, 1,000 g/ha, evaluated after 13 days (100=total damage; 0=no damage), read-out: Percentage damage IPOHE.
The mark [34] stands for this setting: pre-emergence, 1,000 g/ha, evaluated after 13 days (100=total damage; 0=no damage), read-out: Percentage damage AMARE.
[35] abbreviates: pre-emergence, 1,000 g/ha, evaluated after 13 days (100=total damage; 0=no damage), read-out: Percentage damage SOLNI.
[36] abbreviates: pre-emergence, 1,000 g/ha, evaluated after 13 days (100=total damage; 0=no damage), read-out: Percentage damage ALOMY.

In the case of `COC(=O)c1nc(C2CC2)nc(N(Cc2ccccc2)Cc2ccccc2)c1Cl` [Compound 155-60, 5-Chloro-2-cyclopropyl-4-dibenzylamino-6-methoxycarbonyl-pyrimidine], the pest or weed control at 1000 g/ha in test [1] (setting [13]) amounted to 10%; in the test on Setaria faberi (SETFA) [2] (setting [14]), 40%; in test [3] (setting [15]), 80%; in test [4] (setting [16]) it was 70%; with Solanum nigrum (SOLNI) [5] (setting [17]), 80%; in test [6] (setting [18]) it was 10%. Moreover, the pest or weed control at 1000 g/ha in [7] (setting [19]) came to 0%; in the test on Setaria faberi (SETFA) [8] (setting [20]), 0%; in [9] (setting [21]) it was 40%; in test [10] (setting [22]), 30%; in the test on Solanum nigrum (SOLNI) [11] (setting [23]), 0%; in [12] (setting [24]), 0%.

In the case of `COC(=O)c1nc(C2CC2)nc(NC2(/C=C/c3ccc(Cl)cc3Cl)CC2)c1Cl` [Compound 4-28, 5-Chloro-2-cyclopropyl-4-{1-[2-(2,4-dichloro-phenyl)ethenyl]-cyclopropyl-amino}-6-methoxy-carbonylpyrimidine], the pest or weed control at 1000 g/ha stood at 30% in test [1] (setting [25]); 50% with Setaria faberi (SETFA) [2] (setting [26]); 100% in test [3] (setting [27]); 100% in [4] (setting [28]); 80% with Solanum nigrum (SOLNI) [5] (setting [29]); 10% in [6] (setting [30]). Besides, the pest or weed control at 1000 g/ha in [7] (setting [31]) worked out at 0%; with Setaria faberi (SETFA) [8] (setting [32]), 10%; in [9] (setting [33]) it was 70%; in [10] (setting [34]), 90%; with Solanum nigrum (SOLNI) [11] (setting [35]), 40%; in test [12] (setting [36]), 10%.

Turning to `COC(=O)c1nc(-c2ccc(F)c(OC)c2)nc(NCc2ccco2)c1Cl` [Compound 243-48, 5-Chloro-2-(4-fluoro-3-methoxyphenyl)-4-(furan-2-yl-methyl-amino)-6-methoxy-carbonylpyrimidine], the pest or weed control at 1000 g/ha in [1] (setting [13]) was 40%; in the test on Setaria faberi (SETFA) [2] (setting [14]), 60%; in [3] (setting [15]) it was 10%; in [4] (setting [16]), 100%; in the test on Solanum nigrum (SOLNI) [5] (setting [17]), 60%; in test [6] (setting [18]), 10%. The pest or weed control at 1000 g/ha in test [7] (setting [19]) turned out to be 0%; with Setaria faberi (SETFA) [8] (setting [20]), 40%; in [9] (setting [21]), 0%; in test [10] (setting [22]), 60%; in the test with Solanum nigrum (SOLNI) [11] (setting [23]), 10%; in [12] (setting [24]) it was 10%.

On to `COC(=O)c1nc(C2CC2)nc(NCc2ccc(F)cc2F)c1Cl` [Compound 4-97, 5-Chloro-2-cyclopropyl-4-(2,4-difluorophenyl-methylamino)-6-methoxycarbonyl-pyrimidine], for which the pest or weed control at 1000 g/ha in [1] (setting [25]) was found to be 80%; in the test on Setaria faberi (SETFA) [2] (setting [26]), 90%; in test [3] (setting [27]) it was 100%; in test [4] (setting [28]) it was 100%; in the test with Solanum nigrum (SOLNI) [5] (setting [29]) it was 100%; in test [6] (setting [30]) it was 20%. For the same molecule, the pest or weed control at 1000 g/ha in [7] (setting [31]) was determined as 40%; with Setaria faberi (SETFA) [8] (setting [32]), 40%; in [9] (setting [33]) it was 60%; in test [10] (setting [34]), 40%; in the test with Solanum nigrum (SOLNI) [11] (setting [35]) it was 50%; in test [12] (setting [36]) it was 20%.

For the molecule `COC(=O)c1nc(C2CC2)nc(NCCc2cccs2)c1Cl` [Compound 4-224, 5-Chloro-2-cyclopropyl-6-methoxycarbonyl-4-[2-(thiophen-2-yl)ethylamino]-pyrimidine], the pest or weed control at 1000 g/ha came to 10% in test [1] (setting [25]); 30% in the test with Setaria faberi (SETFA) [2] (setting [26]); 50% in [3] (setting [27]); 100% in test [4] (setting [28]); 70% in the test on Solanum nigrum (SOLNI) [5] (setting [29]); 10% in test [6] (setting [30]). Also, the pest or weed control at 1000 g/ha in [7] (setting [31]) was determined as 0%; with Setaria faberi (SETFA) [8] (setting [32]), 0%; in test [9] (setting [33]), 70%; in test [10] (setting [34]), 20%; in the test on Solanum nigrum (SOLNI) [11] (setting [35]), 30%; in [12] (setting [36]), 0%.

For the molecule `COC(=O)c1nc(C2CC2)nc(NCC2(O)CCc3ccc(OC)cc32)c1Cl` (stereo not drawn) [Compound 4-59, 5-Chloro-2-cyclopropyl-4-[(1-hydroxy-6-methoxyindan-1-yl)methylamino]-6-methoxycarbonyl-pyrimidine], the pest or weed control at 1000 g/ha in test [1] (setting [25]) amounted to 60%; in the test with Setaria faberi (SETFA) [2] (setting [26]), 80%; in test [3] (setting [27]) it was 100%; in test [4] (setting [28]) it was 100%; in the test on Solanum nigrum (SOLNI) [5] (setting [29]), 100%; in test [6] (setting [30]) it was 50%. Moreover, the pest or weed control at 1000 g/ha in [7] (setting [31]) was 40%; with Setaria faberi (SETFA) [8] (setting [32]), 10%; in test [9] (setting [33]), 80%; in [10] (setting [34]), 80%; in the test with Solanum nigrum (SOLNI) [11] (setting [35]), 80%; in test [12] (setting [36]) it was 20%.

As for `COC(=O)c1nc(C2CC2)nc(N[C@H]2c3ccccc3C[C@H]2O)c1Cl` [4-37 (1S,2R), 5-Chloro-2-cyclopropyl-4-[(1S, 2R)-2-hydroxy-indan-1-ylamino]-6-methoxycarbonyl-pyrimidine], the pest or weed control at 1000 g/ha turned out to be 60% in test [1] (setting [25]); 60% in the test on Setaria faberi (SETFA) [2] (setting [26]); 50% in test [3] (setting [27]); 100% in [4] (setting [28]); 100% in the test on Solanum nigrum (SOLNI) [5] (setting [29]); 50% in [6] (setting [30]). The pest or weed control at 1000 g/ha in test [7] (setting [31]) amounted to 40%; in the test with Setaria faberi (SETFA) [8] (setting [32]), 60%; in test [9] (setting [33]) it was 80%; in test [10] (setting [34]) it was 100%; with Solanum nigrum (SOLNI) [11] (setting [35]), 90%; in test [12] (setting [36]), 30%.

Values taken from patent US20110086759A1, “CHEMICAL COMPOUNDS” (SYNGENTA CROP PROTECTION, INC., priority 2007, published 2011).
